This passage reports Kd results from publication PMC6331797, “Escherichia coli ASKA Clone Library Harboring tRNA-Specific Adenosine Deaminase (tadA) Reveals Resistance towards Xanthorrhizol” (Molecules, 2015).

Common to all, as to assay: tryptophan fluorescence quenching titration with purified protein
Holding throughout (assay type): binding

For test [1], the target named is T1, tadA (tRNA-specific adenosine deaminase) (Escherichia coli, UniProt P68398, F149G).
T1 construct: his-tagged tadA

Test [2] concerns the target T2, tadA (tRNA-specific adenosine deaminase) (Escherichia coli, UniProt P68398).
T2 construct: his-tagged tadA

Test [3] deals with T3, tadA (tRNA-specific adenosine deaminase) (Escherichia coli, UniProt P68398, A143V).
T3 construct: his-tagged tadA
T3 sequence (P68398 whole entry A143V): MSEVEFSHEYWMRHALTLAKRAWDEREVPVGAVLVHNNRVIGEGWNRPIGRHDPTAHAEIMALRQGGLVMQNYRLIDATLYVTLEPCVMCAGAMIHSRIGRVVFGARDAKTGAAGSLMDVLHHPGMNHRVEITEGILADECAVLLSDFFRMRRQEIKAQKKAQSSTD

T1 sequence (P68398 whole entry F149G): as the sequence (P68398 whole entry A143V) above, with V143A, F149G counted along it
T2 sequence (P68398 whole entry): as the sequence (P68398 whole entry A143V) above, with V143A counted along it

Turning to `CC(C)=CCC[C@@H](C)c1ccc(C)c(O)c1` [xanthorrhizol], the Kd (usually the constant that tells how readily two partners part at equilibrium) in test [1] turned out to be 32.8 µM; in test [2] it was 19 µM; in test [3], 110 µM.
